From PMC11550293, “Biochemical characterization of a recombinant laccase from Halalkalibacterium halodurans C-125 and its application in the biotransformation of organic compounds” (Biotechnology Letters, 2024)

How the values were obtained:
rLac-HhC125 = biological target: T1, rLac-HhC125 (Halalkalibacterium halodurans, UniProt Q9KB49); test: biochemical; details: read-out: Residual activity (%) ± SD (0 min)
T1 construct: gene BH2082

purified protein = substrate: COc1cc(C=NN=Cc2cc(OC)c(O)c(OC)c2)cc(OC)c1O; test: purified protein; format: biochemical, Halalkalibacterium halodurans; details: 100 mM Tris-HCl pH 8, 2 mM CuSO4, enzyme pre-treated 50 °C 20 min, partially purified enzyme

Molecule | remaining activity at 1000 µM (rLac-HhC125) [%] | Km (purified protein) [µM]
NC(=S)Nc1ccccc1 [Phenylthiourea] | 3.9 ± 3.8 | –
rLac-HhC125 (Halalkalibacterium halodurans C-125) (protein, native signal peptide removed (forward primer encodes MDDHSEMD...), pET28-a(+) BamHI/HindIII, E. coli BL21(DE3); partially purified by SEC; theoretical monomer 54 kDa; monomer and possibly dimer) DDHSEMDHGNNQQDEQNEGTFEDGKKVFNLEVTETHWMFNDEVMMDAWTYNGTLPGQEIRVQEGDEVVINVKNSLNVPTALHLHGFPVPNEMDGVPGVTQNAIMPGEEFTYEYQANVPGTYWYHSHQDGATQVDRGLYGVFIVEPVDPESYDTDVAIVIDEFASMGMGMGMDHSTMDHGDMEHDGNDDMSHSEMMNEMYDTMVINGKADPQIESINVVEGNRVKLRFVNAGLFTQVVSIPEHSFKITHYDGQPVNEPDVLQDTAFRIAPAERYDLEIIMDNPGAWGIQVFAEENQERLQALIPLVYEEYEDEELQTVDSISSFFDLTTYGIPKELDIGDITKEYDMLLGSDDGGDTFTINGKKFPNHEIYDVEEGDMVKFTIINDTDFDHPMHLHGDFFHVISKGGKAIQGSPVLKDTLNVRPGETYEIVFEAKNPGNWMFHCHEFHHASGGMVAEIHYEGFELPFTPDPNIPNMPE | – | 2.48
